Patent US8163511B2, “Methods for the identification of LRRK2 interacting molecules” (CellZome AG, priority 2006, dated 2012)

Target: T1, LRRK2 (Mus musculus, UniProt Q5S006)
T1 construct: from tissue; host or cells: mouse brain
Test: Drug pulldown with immobilized indol ligand 91 and identification of LRRK2 by LC-MS/MS
Format: binding
Conditions: ligand covalently attached to Sepharose beads, mouse brain lysate, SDS elution, SDS-PAGE, twelve LRRK2 peptides identified
Protocol: Proteins binding to immobilized indol ligand 91 were identified using a chemical proteomics procedure. Binding proteins were purified on a resin to which indol ligand 91 was covalently attached. Bound proteins were eluted and subsequently separated by SDS-Polyacrylamide gel elecrophoresis (see FIG. 2), suitable gel bands were cut out and proteins were analyzed by LC-MS/MS mass spectrometry.
NHS-activated Sepharose 4 Fast Flow (Amersham Biosciences, 17-0906-01) was equilibrated with anhydrous DMSO (Dimethylsulfoxid, Fluka, 41648, H20<=0.005%). 1 ml of settled beads were placed in a 15 ml Falcon tube, compound stock solution (usually 100 mM in DMF or DMSO) was added (final conc. 0.2-2 μmol/ml beads) as well as 15 μl of TEA. Beads were incubated at room temperature in darkness on an end-over-end shaker (Roto Shake Genie, Scientific Industries Inc.) for 16-20 hours. Coupling efficiency was determined by HPLC. […]
Mouse brain tissue was homogenized in a Potter S homogenizer (5 ml per brain): 50 mM Tris-HCl, 1% CHAPSO, 5% glycerol, 150 mM NaCl, 1.5 mM MgCl2, 25 mM NaF, 1 mM sodium vanadate, 1 mM DTT, pH 7.5. […] The supernatant was transferred again to a fresh 50 ml falcon tube, the protein concentration was determined by a Bradford assay (BioRad) and samples containing 50 mg of protein per aliquot were prepared. […]

T1 sequence (Q5S006 whole entry V777I/K863N/C925Y/E1011G/E1190G/E1882G/Q2178N): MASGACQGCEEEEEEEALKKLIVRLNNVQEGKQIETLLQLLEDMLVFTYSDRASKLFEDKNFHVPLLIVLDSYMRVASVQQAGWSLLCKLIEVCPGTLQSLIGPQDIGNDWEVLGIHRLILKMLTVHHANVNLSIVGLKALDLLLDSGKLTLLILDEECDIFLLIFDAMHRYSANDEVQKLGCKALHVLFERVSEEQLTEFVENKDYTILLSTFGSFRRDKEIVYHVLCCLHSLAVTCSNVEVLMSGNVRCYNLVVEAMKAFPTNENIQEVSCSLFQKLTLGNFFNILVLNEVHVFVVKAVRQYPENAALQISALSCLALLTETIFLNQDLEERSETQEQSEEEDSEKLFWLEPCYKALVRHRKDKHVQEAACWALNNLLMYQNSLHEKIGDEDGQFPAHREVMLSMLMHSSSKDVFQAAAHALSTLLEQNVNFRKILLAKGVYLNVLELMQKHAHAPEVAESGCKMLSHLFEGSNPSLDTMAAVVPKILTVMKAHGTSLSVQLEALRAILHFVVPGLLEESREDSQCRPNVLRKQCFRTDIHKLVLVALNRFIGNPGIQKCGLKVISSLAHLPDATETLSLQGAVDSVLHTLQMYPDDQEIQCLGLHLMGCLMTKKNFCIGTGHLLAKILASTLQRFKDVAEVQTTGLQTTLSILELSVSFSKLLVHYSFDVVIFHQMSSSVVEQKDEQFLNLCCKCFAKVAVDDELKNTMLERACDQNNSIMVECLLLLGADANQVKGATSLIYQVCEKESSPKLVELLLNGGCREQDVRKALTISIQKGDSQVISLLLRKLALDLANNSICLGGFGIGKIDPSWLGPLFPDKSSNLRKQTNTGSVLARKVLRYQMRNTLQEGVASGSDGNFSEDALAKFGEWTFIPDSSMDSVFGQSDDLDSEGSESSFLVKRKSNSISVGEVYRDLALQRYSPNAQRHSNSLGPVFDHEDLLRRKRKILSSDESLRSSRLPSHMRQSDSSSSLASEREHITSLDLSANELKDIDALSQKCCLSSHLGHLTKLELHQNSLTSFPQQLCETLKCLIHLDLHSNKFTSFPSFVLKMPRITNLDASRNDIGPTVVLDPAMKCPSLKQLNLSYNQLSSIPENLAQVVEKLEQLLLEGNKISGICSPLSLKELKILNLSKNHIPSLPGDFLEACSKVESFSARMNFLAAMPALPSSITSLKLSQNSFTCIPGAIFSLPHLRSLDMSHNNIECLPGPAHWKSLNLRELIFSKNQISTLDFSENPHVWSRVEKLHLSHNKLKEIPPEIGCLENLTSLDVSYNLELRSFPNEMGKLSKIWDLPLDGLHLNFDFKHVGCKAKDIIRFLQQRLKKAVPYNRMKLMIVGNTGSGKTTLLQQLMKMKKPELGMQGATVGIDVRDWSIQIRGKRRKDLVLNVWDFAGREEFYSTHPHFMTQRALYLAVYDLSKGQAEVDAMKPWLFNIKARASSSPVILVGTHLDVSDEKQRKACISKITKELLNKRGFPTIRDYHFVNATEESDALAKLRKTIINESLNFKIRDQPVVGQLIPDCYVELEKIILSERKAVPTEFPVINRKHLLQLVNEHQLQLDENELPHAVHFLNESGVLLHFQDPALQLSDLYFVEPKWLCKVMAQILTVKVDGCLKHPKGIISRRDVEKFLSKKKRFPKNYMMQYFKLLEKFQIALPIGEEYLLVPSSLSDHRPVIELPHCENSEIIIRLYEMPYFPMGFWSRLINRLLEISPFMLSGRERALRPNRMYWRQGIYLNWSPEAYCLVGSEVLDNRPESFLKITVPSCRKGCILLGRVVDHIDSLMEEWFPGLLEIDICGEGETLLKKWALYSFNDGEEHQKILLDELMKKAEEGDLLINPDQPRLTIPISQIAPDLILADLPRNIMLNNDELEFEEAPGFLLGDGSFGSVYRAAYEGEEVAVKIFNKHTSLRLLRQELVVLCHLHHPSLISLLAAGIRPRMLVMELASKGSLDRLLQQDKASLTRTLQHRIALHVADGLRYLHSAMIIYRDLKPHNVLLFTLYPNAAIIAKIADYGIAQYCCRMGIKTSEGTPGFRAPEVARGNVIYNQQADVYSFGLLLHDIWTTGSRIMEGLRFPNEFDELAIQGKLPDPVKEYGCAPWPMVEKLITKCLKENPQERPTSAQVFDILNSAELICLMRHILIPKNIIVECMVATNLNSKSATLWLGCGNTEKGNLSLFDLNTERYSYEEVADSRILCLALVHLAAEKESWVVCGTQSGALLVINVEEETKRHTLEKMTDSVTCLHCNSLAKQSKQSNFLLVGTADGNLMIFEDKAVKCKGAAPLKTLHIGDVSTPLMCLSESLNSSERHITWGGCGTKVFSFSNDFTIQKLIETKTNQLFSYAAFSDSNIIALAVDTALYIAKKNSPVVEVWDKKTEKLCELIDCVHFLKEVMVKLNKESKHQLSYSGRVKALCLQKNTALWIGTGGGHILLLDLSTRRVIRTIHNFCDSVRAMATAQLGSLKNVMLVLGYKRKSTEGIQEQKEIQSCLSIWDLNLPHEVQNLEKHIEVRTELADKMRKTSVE

Cc1[nH]c(/C=C2\C(=O)Nc3ccc(F)cc32)c(C)c1C(=O)NCCCN [indol ligand 91, 5-[5-Fluoro-2-oxo-1,2-dihydro-indol-(3Z)-ylidenemethyl]-2,4-dimethyl-1H-pyrrole-3-carboxylic acid (3-amino-propyl)-amide]
enrichment/identification of LRRK2 bound to the immobilized ligand: can be used to enrich and characterize LRRK2 from mouse brain lysates
